The values that follow come from patent publication US8431564B2 (Merck Sharp & Dohme B.V., priority 2009, dated 2013).

The experiment has as its target T1, human FSH receptor (Homo sapiens, UniProt P23945).
T1 construct: expressed in transfected cells; host or cells: CHO (Chinese Hamster Ovary) cells, stably transfected, cotransfected with CRE-luciferase reporter
T1 sequence (P23945 18-695): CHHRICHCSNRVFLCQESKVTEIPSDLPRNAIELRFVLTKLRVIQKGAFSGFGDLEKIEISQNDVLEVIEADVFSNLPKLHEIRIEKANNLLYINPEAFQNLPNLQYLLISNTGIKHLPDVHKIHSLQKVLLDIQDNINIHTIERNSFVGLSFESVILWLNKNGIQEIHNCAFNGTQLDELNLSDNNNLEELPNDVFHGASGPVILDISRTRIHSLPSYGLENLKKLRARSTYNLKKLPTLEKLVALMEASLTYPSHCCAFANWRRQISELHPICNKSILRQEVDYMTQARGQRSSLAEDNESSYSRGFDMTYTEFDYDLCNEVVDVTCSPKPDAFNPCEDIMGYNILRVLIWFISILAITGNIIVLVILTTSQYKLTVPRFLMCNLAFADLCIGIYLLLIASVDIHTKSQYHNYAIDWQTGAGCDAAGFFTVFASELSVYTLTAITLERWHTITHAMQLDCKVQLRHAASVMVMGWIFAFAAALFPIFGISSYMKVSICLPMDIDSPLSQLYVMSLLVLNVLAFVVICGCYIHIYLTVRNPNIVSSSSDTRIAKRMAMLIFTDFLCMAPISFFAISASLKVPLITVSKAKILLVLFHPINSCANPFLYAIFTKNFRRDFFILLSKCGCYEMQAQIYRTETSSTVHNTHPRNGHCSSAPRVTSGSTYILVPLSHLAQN
The experiment in a line: Agonistic activity at the human FSH receptor expressed in CHO cells (CRE-luciferase reporter). The settings on record: CHO cells stably transfected with human FSH receptor and CRE/luciferase reporter; 4 hours incubation; pEC50 is -log EC50; read-out: hFSHRago (CHO luc) pEC50 (converted). In kind it is cell-based. An excerpt:
The term EC50 means the concentration of the test compound that elicits half-maximal (50%) stimulation compared to the compound's maximally attainable effect. pEC50 is the negative log of EC50. The values can be determined e.g. in a cell line transfected with a FSH receptor gene and cotransfected with a cAMP responsive element/promoter directing the expression of a reporter gene. For the determination a software program such as MathIQ (version 2.0, ID Business Solutions Limited) can be used.
Agonistic activity of the compounds at the human FSH receptor was determined in Chinese Hamster Ovary (CHO) cells stably transfected with the human FSH receptor and cotransfected with a cAMP responsive element (CRE)/promotor directing the expression of a firefly luciferase reporter gene. Binding of the compounds to the Gs protein-coupled FSH receptor will result in an increase of cAMP, which in turn will induce an increased transactivation of the luciferase reporter. Cells (7,500 cells/well of a 384 well plate) were incubated in Dulbecco' minimal essential F12 modified medium (Invitrogen), supplemented with 1 μg/ml bovine insulin, 5 μg/ml human apo-transferrin, 80 U/ml penicillin G and 80 μg/ml streptomycin with the test compounds (concentration between 0.0316 nM and 10.0 μM) in duplicate in a humidified atmosphere (95%) at 5-7% CO2 and 37° C. The final concentration of DMSO was 1%. After 4 hours of incubation, plates were allowed to adjust to room temperature for 1 hour. Then, Luclite (PerkinElmer) solution was added to the wells and cells were allowed to lyse for at least 1 hour at room temperature. Subsequently, luciferase activity was measured in a luminescence counter. The signal is expressed as counts per second (cps). The EC50 (concentration of the test compound that elicits half-maximal (50%) luciferase stimulation compared to the compound's maximally attainable effect) and efficacy values (maximal effect of the test compound as percentage of the maximal effect of recombinant human FSH) of the compounds were determined using the software program MathIQ (version 2.0, ID Business Solutions Limited). pEC50 data (pEC50 is −log EC50) are indicated at the synthesis examples.
Take `COc1cc2c(cc1-n1cc(C[C@H](O)CO)nn1)-c1c(-c3cccs3)c3c(n1CC2)C(=O)N(C(C)(C)C)CCCC3` [Compound 20f, (S)-9-tert-butyl-14-(thien-2-yl)-2-(4-(2,3-dihydroxypropyl)-1H-1,2,3-triazol-1-yl)-3-methoxy-5,6,10,11,12,13-hexahydroazocino[4′,3′:4,5]pyrrolo[2,1-a]isoquinolin-8(9H)-one]: the EC50 was 4.07 nM.

For `COc1cc2c(cc1-n1cc(C[C@@H](O)CO)nn1)-c1c(-c3cccs3)c3c(n1CC2)C(=O)N(C(C)(C)C)CCCC3` [Compound 20g, (R)-9-tert-butyl-14-(thien-2-yl)-2-(4-(2,3-dihydroxypropyl)-1H-1,2,3-triazol-1-yl)-3-methoxy-5,6,10,11,12,13-hexahydroazocino[4′,3′:4,5]pyrrolo[2,1-a]isoquinolin-8(9H)-one], the EC50 is 3.24 nM.

Consider `COc1cc2c(cc1C#N)-c1c(-c3cccs3)c3c(n1CC2)C(=O)N(C(C)(C)C)CCCC3` [Compound 20h, 9-tert-butyl-14-(thien-2-yl)-3-methoxy-5,6,10,11,12,13-hexahydroazocino[4′,3′:4,5]pyrrolo[2,1-a]isoquinolin-8(9H)-one-2-carbonitrile], for which the EC50 is 1.78 nM.

On to `COc1cc2c(cc1[C@H](O)[C@@H](O)CO)-c1c(-c3cccs3)c3c(n1CC2)C(=O)N(C(C)(C)C)CCCC3` [Compound 21h, (1S,2S)-1-(9-tert-butyl-14-(thien-2-yl)-3-methoxy-5,6,10,11,12,13-hexahydroazocino[4′,3′:4,5]pyrrolo[2,1-a]isoquinolin-8(9H)-on-2-yl)propane-1,2,3-triol], for which the EC50 was 5.5 nM.

Consider `COc1cc2c(cc1CCCO)-c1c(-c3cccs3)c3c(n1CC2)C(=O)N(C(C)(C)C)CCCC3` [Compound 21j, 3-(9-tert-butyl-14-(thien-2-yl)-3-methoxy-5,6,10,11,12,13-hexahydroazocino[4′,3′:4,5]pyrrolo[2,1-a]isoquinolin-8(9H)-on-2-yl)propan-1-ol], for which the EC50 was 0.251 nM.

`COc1cc2c(cc1NC(=O)CN(C)C)-c1c(-c3cccs3)c3c(n1CC2)C(=O)N(C(C)(C)C)CCCC3` [Compound 22b, 2-dimethylamino-N-(9-tert-butyl-14-(thien-2-yl)-3-methoxy-5,6,10,11,12,13-hexahydroazocino[4′,3′:4,5]pyrrolo[2,1-a]isoquinolin-8(9H)-on-2-yl)acetamide]: the EC50 is 4.68 nM.

For the compound `COc1cc2c(cc1NC(=O)CN1CC(O)C1)-c1c(-c3cccs3)c3c(n1CC2)C(=O)N(C(C)(C)C)CCCC3` [Compound 22c, 2-(3-hydroxyazetidin-1-yl)-N-(9-tert-butyl-14-(thien-2-yl)-3-methoxy-5,6,10,11,12,13-hexahydroazocino[4′,3′:4,5]pyrrolo[2,1-a]isoquinolin-8(9H)-on-2-yl)acetamide], the EC50 is 1.26 nM.

In the case of `CCN1CCN(CC(=O)Nc2cc3c(cc2OC)CCn2c4c(c(-c5cccs5)c2-3)CCCCN(C(C)(C)C)C4=O)CC1` [Compound 22d, 2-(4-ethylpiperazin-1-yl)-N-(9-tert-butyl-14-(thien-2-yl)-3-methoxy-5,6,10,11,12,13-hexahydroazocino[4′,3′:4,5]pyrrolo[2,1-a]isoquinolin-8(9H)-on-2-yl)acetamide], the EC50 was 3.31 nM.

As to `CC[S+]([O-])c1cc2c(cc1OC)CCn1c3c(c(Br)c1-2)CCCCN(C(C)(C)C)C3=O` (stereo not shown) [Compound 23d, 9-tert-butyl-14-bromo-2-ethylsulfinyl-3-methoxy-5,6,10,11,12,13-hexahydroazocino[4′,3′:4,5]pyrrolo[2,1-a]isoquinolin-8(9H)-one], the EC50 is 245 nM.

For `CCS(=O)(=O)c1cc2c(cc1OC)CCn1c3c(c(Br)c1-2)CCCCN(C(C)(C)C)C3=O` [Compound 23e, 9-tert-butyl-14-bromo-2-ethylsulfonyl-3-methoxy-5,6,10,11,12,13-hexahydroazocino[4′,3′:4,5]pyrrolo[2,1-a]isoquinolin-8(9H)-one], the EC50 was 155 nM.

As for `CCS(=O)(=O)c1cc2c(cc1OC)CCn1c3c(c(-c4cccs4)c1-2)CCCCN(C(C)(C)C)C3=O` [Compound 23f, 9-tert-butyl-14-(thien-2-yl)-2-ethylsulfonyl-3-methoxy-5,6,10,11,12,13-hexahydroazocino[4′,3′:4,5]pyrrolo[2,1-a]isoquinolin-8(9H)-one], the EC50 is 1.82 nM.

Turning to `CCS(=O)(=O)c1cc2c(cc1OC)CCn1c3c(c(-c4cncs4)c1-2)CCCCN(C(C)(C)C)C3=O` [Compound 23g, 9-tert-butyl-14-(thiazol-5-yl)-2-ethylsulfonyl-3-methoxy-5,6,10,11,12,13-hexahydroazocino[4′,3′:4,5]pyrrolo[2,1-a]isoquinolin-8(9H)-one], the EC50 is 10.7 nM.

With `COc1cc2c(cc1-c1cccnc1)-c1c(-c3cccs3)c3c(n1CC2)C(=O)N(C(C)(C)C)CCC(C)(C)C3` [Compound 24k, 9-tert-butyl-12,12-dimethyl-3-methoxy-2-pyridin-3-yl-14-(2-thienyl)-5,6,10,11,12,13-hexahydroazocino[4′,3′:4,5]pyrrolo[2,1-a]isoquinolin-8(9H)-one], the EC50 was 389 nM.

Turning to `COc1cc2c(cc1-c1cccnc1)-c1c(C3=CCOCC3)c3c(n1CC2)C(=O)N(C(C)(C)C)CCCC3` [Compound 25c, 9-tert-butyl-2-(3-pyridyl)-14-(3,6-dihydro-2H-pyran-4-yl)-3-methoxy-5,6,10,11,12,13-hexahydroazocino[4′,3′:4,5]pyrrolo[2,1-a]isoquinolin-8(9H)-one], the EC50 is 6.31 nM.

For `COc1cc2c(cc1-c1cccnc1)-c1c(C3=CCSCC3)c3c(n1CC2)C(=O)N(C(C)(C)C)CCCC3` [Compound 25d, 9-tert-butyl-2-(3-pyridyl)-14-(3,6-dihydro-2H-thiopyran-4-yl)-3-methoxy-5,6,10,11,12,13-hexahydroazocino[4′,3′:4,5]pyrrolo[2,1-a]isoquinolin-8(9H)-one], the EC50 is 10.7 nM.

Consider `COC(=O)c1cc2c(cc1OC)CCn1c3c(c(-c4cccs4)c1-2)CCCCN(C(C)(C)C)C3=O` [Compound 26a, methyl 9-tert-butyl-3-methoxy-14-(thiophen-2-yl)-5,6,10,11,12,13-hexahydroazocino[4′,3′:4,5]pyrrolo[2,1-a]isoquinolin-8(9H)-one-2-carboxylate], for which the EC50 is 1 nM.

As to `COc1cc2c(cc1C(=O)O)-c1c(-c3cccs3)c3c(n1CC2)C(=O)N(C(C)(C)C)CCCC3` [Compound 26b, 9-tert-butyl-3-methoxy-14-(thiophen-2-yl)-5,6,10,11,12,13-hexahydroazocino[4′,3′:4,5]pyrrolo[2,1-a]isoquinolin-8(9H)-one-2-carboxylic acid], the EC50 was 44.7 nM.

As for `COc1cc2c(cc1C(=O)NCCN1CCOCC1)-c1c(-c3cccs3)c3c(n1CC2)C(=O)N(C(C)(C)C)CCCC3` [Compound 26c1, 9-tert-butyl-3-methoxy-N^2-(2-morpholinoethyl)-14-(thiophen-2-yl)-5,6,10,11,12,13-hexahydroazocino[4′,3′:4,5]pyrrolo[2,1-a]isoquinolin-8(9H)-one-2-carboxamide], the EC50 was 1.78 nM.

Consider `COC(=O)[C@@H]1CCCN1C(=O)c1cc2c(cc1OC)CCn1c3c(c(-c4cccs4)c1-2)CCCCN(C(C)(C)C)C3=O` [Compound 26c2, (S)-9-tert-butyl-3-methoxy-14-(thiophen-2-yl)-5,6,10,11,12,13-hexahydroazocino[4′,3′:4,5]pyrrolo[2,1-a]isoquinolin-8(9H)-one-2-carbonyl(1-pyrrolidinyl-2-carboxylate) methyl ester], for which the EC50 was 37.2 nM.
